{
  "source": "paper PMC5218480",
  "about": "(PLoS ONE, 2017)",
  "test_system": "MV-4-11 cells",
  "assay": "Gene expression microarray analysis (Affymetrix PrimeView) and GSEA",
  "assay_type": "cell-based, human",
  "parameters": "RFU PODN (11730768_x_at) / Fold change /veh PODN (11730768_x_at) / RFU LINC00158 (11744669_a_at) / Fold change /veh LINC00158 (11744669_a_at) / RFU DUSP10 (11751237_a_at) / Fold change /veh DUSP10 (11751237_a_at) / RFU ID3 (11757404_x_at) / Fold change /veh ID3 (11757404_x_at) / RFU PLEKHG5 (11737974_s_at) / Fold change /veh PLEKHG5 (11737974_s_at) / RFU LRRC4B (11730491_at) / Fold change /veh LRRC4B (11730491_at) / RFU GIMAP4 (11747438_a_at) / Fold change /veh GIMAP4 (11747438_a_at) / RFU KRT8 (11758183_x_at) / Fold change /veh KRT8 (11758183_x_at) / RFU CNN1 (11734310_a_at) / Fold change /veh CNN1 (11734310_a_at) / RFU VPS37D (11726825_at) / Fold change /veh VPS37D (11726825_at) / RFU C10orf10 (11716522_x_at) / Fold change /veh C10orf10 (11716522_x_at) / RFU KIR2DL2 /// KIR2DL4 /// KIR2DL5A /// KIR2DL5B /// KIR2DS1 /// KIR2DS2 /// KIR2DS3 /// KIR2DS4 /// KIR3DL3 /// KIR3DL3 /// KIR3DS1 (11738374_at) / Fold change /veh KIR2DL2 /// KIR2DL4 /// KIR2DL5A /// KIR2DL5B /// KIR2DS1 /// KIR2DS2 /// KIR2DS3 /// KIR2DS4 /// KIR3DL3 /// KIR3DL3 /// KIR3DS1 (11738374_at) / RFU C1QL1 (11718748_at) / Fold change /veh C1QL1 (11718748_at) / RFU TMPRSS4 (11747572_a_at) / Fold change /veh TMPRSS4 (11747572_a_at) / RFU HAMP (11756126_x_at) / Fold change /veh HAMP (11756126_x_at) / RFU RNFT2 (11725882_a_at) / Fold change /veh RNFT2 (11725882_a_at) / RFU NR4A2 (11747474_a_at) / Fold change /veh NR4A2 (11747474_a_at) / RFU ABCC12 (11746883_a_at) / Fold change /veh ABCC12 (11746883_a_at) / RFU TMEM136 (11760407_x_at) / Fold change /veh TMEM136 (11760407_x_at) / RFU CLDN22 /// WWC2 (11732394_at) / Fold change /veh CLDN22 /// WWC2 (11732394_at) / RFU HLA-DPB1 (11760878_x_at) / Fold change /veh HLA-DPB1 (11760878_x_at) / RFU SPINT1 (11716480_a_at) / Fold change /veh SPINT1 (11716480_a_at) / RFU GAP43 (11754022_s_at) / Fold change /veh GAP43 (11754022_s_at) / RFU A4GNT (11735810_at) / Fold change /veh A4GNT (11735810_at) / RFU PRB3 (11715151_x_at) / Fold change /veh PRB3 (11715151_x_at) / RFU TUBB4B (11761932_at) / Fold change /veh TUBB4B (11761932_at) / RFU CAPN14 (11732068_a_at) / Fold change /veh CAPN14 (11732068_a_at) / RFU TMCC2 (11721928_a_at) / Fold change /veh TMCC2 (11721928_a_at) / RFU IRGQ (11745062_a_at) / Fold change /veh IRGQ (11745062_a_at) / RFU FAM174B (11720279_a_at) / Fold change /veh FAM174B (11720279_a_at) / RFU TMPRSS4 (11748680_a_at) / Fold change /veh TMPRSS4 (11748680_a_at) / RFU FAM212B (11763350_a_at) / Fold change /veh FAM212B (11763350_a_at) / RFU PLEKHG5 (11743358_a_at) / Fold change /veh PLEKHG5 (11743358_a_at) / RFU ZSCAN30 (11745921_a_at) / Fold change /veh ZSCAN30 (11745921_a_at) / RFU CMKLR1 (11741424_a_at) / Fold change /veh CMKLR1 (11741424_a_at) / RFU LOC101060620 /// MAPK8IP1 (11723275_at) / Fold change /veh LOC101060620 /// MAPK8IP1 (11723275_at) / RFU SPTSSB (11747773_x_at) / Fold change /veh SPTSSB (11747773_x_at) / RFU PRSS12 (11739890_at) / Fold change /veh PRSS12 (11739890_at) / RFU BIN1 (11741810_x_at) / Fold change /veh BIN1 (11741810_x_at) / RFU WNT11 (11732464_a_at) / Fold change /veh WNT11 (11732464_a_at) / RFU C10orf10 (11716521_a_at) / Fold change /veh C10orf10 (11716521_a_at) / RFU C5orf56 (11738089_at) / Fold change /veh C5orf56 (11738089_at) / RFU CYB561 (11721691_x_at) / Fold change /veh CYB561 (11721691_x_at) / RFU ANKRD19P (11752326_a_at) / Fold change /veh ANKRD19P (11752326_a_at) / RFU OR2T12 /// OR2T33 /// OR2T8 (11738714_s_at) / Fold change /veh OR2T12 /// OR2T33 /// OR2T8 (11738714_s_at) / RFU VCAN (11748164_a_at) / Fold change /veh VCAN (11748164_a_at) / RFU JSRP1 (11732532_at) / Fold change /veh JSRP1 (11732532_at) / RFU KRTAP10-11 (11738290_x_at) / Fold change /veh KRTAP10-11 (11738290_x_at) / RFU MYO3A (11730013_a_at) / Fold change /veh MYO3A (11730013_a_at) / RFU EBF3 (11725865_a_at) / Fold change /veh EBF3 (11725865_a_at) / RFU CAMK2N1 (11719241_x_at) / Fold change /veh CAMK2N1 (11719241_x_at) / RFU C5orf56 (11738088_a_at) / Fold change /veh C5orf56 (11738088_a_at) / RFU OLFML3 (11715873_a_at) / Fold change /veh OLFML3 (11715873_a_at) / RFU LOC100653217 /// NTM (11731650_a_at) / Fold change /veh LOC100653217 /// NTM (11731650_a_at) / RFU MAPK11 (11762145_a_at) / Fold change /veh MAPK11 (11762145_a_at) / RFU FIZ1 (11724087_x_at) / Fold change /veh FIZ1 (11724087_x_at) / RFU OASL (11726364_x_at) / Fold change /veh OASL (11726364_x_at) / RFU SOX15 (11748057_x_at) / Fold change /veh SOX15 (11748057_x_at) / RFU CD79A (11719716_a_at) / Fold change /veh CD79A (11719716_a_at) / RFU HIST1H1D (11736915_at) / Fold change /veh HIST1H1D (11736915_at) / RFU CASKIN2 (11723855_a_at) / Fold change /veh CASKIN2 (11723855_a_at) / RFU LOC730098 (11760151_x_at) / Fold change /veh LOC730098 (11760151_x_at) / RFU OR4N2 (11742367_at) / Fold change /veh OR4N2 (11742367_at) / RFU PRRT2 (11749266_a_at) / Fold change /veh PRRT2 (11749266_a_at) / RFU SNX32 (11753110_a_at) / Fold change /veh SNX32 (11753110_a_at) / RFU CDHR5 (11726645_a_at) / Fold change /veh CDHR5 (11726645_a_at) / RFU RCAN1 (11760418_a_at) / Fold change /veh RCAN1 (11760418_a_at) / RFU FAM167A (11723789_a_at) / Fold change /veh FAM167A (11723789_a_at) / RFU FAM26E (11764081_at) / Fold change /veh FAM26E (11764081_at) / RFU ISYNA1 (11749810_s_at) / Fold change /veh ISYNA1 (11749810_s_at) / RFU ACY1 (11761880_at) / Fold change /veh ACY1 (11761880_at) / RFU 11764098_at / Fold change /veh 11764098_at / RFU SAMD14 (11745864_x_at) / Fold change /veh SAMD14 (11745864_x_at) / RFU NPB (11741838_a_at) / Fold change /veh NPB (11741838_a_at) / RFU TMPRSS6 (11731388_a_at) / Fold change /veh TMPRSS6 (11731388_a_at) / RFU KRTAP10-2 (11738614_at) / Fold change /veh KRTAP10-2 (11738614_at) / RFU ARHGAP8 /// PRR5-ARHGAP8 (11727945_x_at) / Fold change /veh ARHGAP8 /// PRR5-ARHGAP8 (11727945_x_at) / RFU KRTAP5-7 /// NADSYN1 (11734609_at) / Fold change /veh KRTAP5-7 /// NADSYN1 (11734609_at) / RFU RASL12 (11751679_a_at) / Fold change /veh RASL12 (11751679_a_at) / RFU CDKN2B (11736163_a_at) / Fold change /veh CDKN2B (11736163_a_at) / RFU PRF1 (11729649_at) / Fold change /veh PRF1 (11729649_at) / RFU, ZNF638 /// ZNF638-IT1 / Fold change vs veh, ZNF638 /// ZNF638-IT1 / RFU, PANK3 / Fold change vs veh, PANK3 / RFU, SH3YL1 / Fold change vs veh, SH3YL1 / RFU, ZEB2 / Fold change vs veh, ZEB2 / RFU, NRIP1 / Fold change vs veh, NRIP1 / RFU, PTTG1IP / Fold change vs veh, PTTG1IP / RFU, CAPN2 / Fold change vs veh, CAPN2 / RFU, MED14 / Fold change vs veh, MED14 / RFU, SNORA58 / Fold change vs veh, SNORA58 / RFU, C1orf63 / Fold change vs veh, C1orf63 / RFU, LRRFIP1 / Fold change vs veh, LRRFIP1 / RFU, NDUFAF7 / Fold change vs veh, NDUFAF7 / RFU, SLC12A2 / Fold change vs veh, SLC12A2 / RFU, IBTK / Fold change vs veh, IBTK / RFU, ESF1 / Fold change vs veh, ESF1 / Fold change vs veh, TMEM50B / RFU, TAOK1 / Fold change vs veh, TAOK1 / RFU, ACBD3 / Fold change vs veh, ACBD3 / RFU, TMA16 / Fold change vs veh, TMA16 / RFU, RWDD3 / Fold change vs veh, RWDD3 / RFU, BCAT1 / Fold change vs veh, BCAT1 / RFU, EDEM3 / Fold change vs veh, EDEM3 / RFU, TMEM33 / Fold change vs veh, TMEM33 / RFU, WDR75 / Fold change vs veh, WDR75 / RFU, AHCTF1 / Fold change vs veh, AHCTF1 / RFU, TFRC / Fold change vs veh, TFRC / RFU, ZDHHC17 / Fold change vs veh, ZDHHC17 / RFU, NOM1 / Fold change vs veh, NOM1 / RFU, ARL8B / Fold change vs veh, ARL8B / RFU, ZBTB11 / Fold change vs veh, ZBTB11 / RFU, TAMM41 / Fold change vs veh, TAMM41 / RFU, KIAA1704 /// LOC100996395 / Fold change vs veh, KIAA1704 /// LOC100996395 / RFU, ING1 / Fold change vs veh, ING1 / RFU, TRMT61B / Fold change vs veh, TRMT61B / RFU, FUBP3 / Fold change vs veh, FUBP3 / RFU, TP53 / Fold change vs veh, TP53 / RFU, TNKS2 / Fold change vs veh, TNKS2 / RFU, ZFP14 / Fold change vs veh, ZFP14 / RFU, ACTR2 / Fold change vs veh, ACTR2 / RFU, PPP3R1 / Fold change vs veh, PPP3R1 / RFU, PIK3R1 / Fold change vs veh, PIK3R1 / RFU, HNRNPA1 / Fold change vs veh, HNRNPA1 / RFU, RNF170 / Fold change vs veh, RNF170 / RFU, ZNF28 / Fold change vs veh, ZNF28 / RFU, RNGTT / Fold change vs veh, RNGTT / RFU, OGT / Fold change vs veh, OGT / RFU, BRD1 / Fold change vs veh, BRD1 / RFU, MARS / Fold change vs veh, MARS / RFU, ZNF655 / Fold change vs veh, ZNF655 / RFU, FAHD1 / Fold change vs veh, FAHD1 / RFU, BDP1 / Fold change vs veh, BDP1 / RFU, LRRCC1 / Fold change vs veh, LRRCC1 / RFU, ARID1A / Fold change vs veh, ARID1A / RFU, ZNF146 / Fold change vs veh, ZNF146 / RFU, ZNF330 / Fold change vs veh, ZNF330 / RFU, GPN3 / Fold change vs veh, GPN3 / RFU, C9orf123 / Fold change vs veh, C9orf123 / RFU, N4BP2L2 / Fold change vs veh, N4BP2L2 / RFU, ARFIP1 / Fold change vs veh, ARFIP1 / RFU, FAM179B / Fold change vs veh, FAM179B / RFU, BCL10 / Fold change vs veh, BCL10 / RFU, UHRF1BP1L / Fold change vs veh, UHRF1BP1L / RFU, BET1 / Fold change vs veh, BET1 / RFU, CNOT2 / Fold change vs veh, CNOT2 / RFU, ZNF268 / Fold change vs veh, ZNF268 / Fold change vs veh, ZNF507 / RFU, DGCR2 / Fold change vs veh, DGCR2 / RFU, WDSUB1 / Fold change vs veh, WDSUB1 / Fold change vs veh, HSP90B1 /// MIR3652 / RFU, ADSS / Fold change vs veh, ADSS / RFU, GK / Fold change vs veh, GK / RFU, ZNF148 / Fold change vs veh, ZNF148 / RFU, TAF9 / Fold change vs veh, TAF9 / RFU, SLC1A5 / Fold change vs veh, SLC1A5 / RFU, SLMO2 / Fold change vs veh, SLMO2 / RFU, ABCC4 / Fold change vs veh, ABCC4 / RFU, LOC101060439 /// RAP1B / Fold change vs veh, LOC101060439 /// RAP1B / RFU, RFX7 / Fold change vs veh, RFX7 / RFU, GTPBP10 / Fold change vs veh, GTPBP10 / RFU, CNEP1R1 / Fold change vs veh, CNEP1R1 / RFU, BIVM-ERCC5 /// ERCC5 / Fold change vs veh, BIVM-ERCC5 /// ERCC5 / RFU, ILF3 / Fold change vs veh, ILF3 / RFU 11762660_at / Fold change /veh 11762660_at / RFU VCAN (11757783_s_at) / Fold change /veh VCAN (11757783_s_at) / RFU DDX43 (11728927_at) / Fold change /veh DDX43 (11728927_at) / RFU KRT8 (11758188_x_at) / Fold change /veh KRT8 (11758188_x_at) / RFU NKD1 (11759106_at) / Fold change /veh NKD1 (11759106_at) / RFU SRD5A1 (11742802_a_at) / Fold change /veh SRD5A1 (11742802_a_at) / RFU TPSAB1 /// TPSB2 (11721975_s_at) / Fold change /veh TPSAB1 /// TPSB2 (11721975_s_at) / RFU GSTM3 (11746129_a_at) / Fold change /veh GSTM3 (11746129_a_at) / RFU IL23R (11737362_x_at) / Fold change /veh IL23R (11737362_x_at) / RFU TMEM51 (11727254_a_at) / Fold change /veh TMEM51 (11727254_a_at) / RFU PIWIL2 (11732686_x_at) / Fold change /veh PIWIL2 (11732686_x_at) / RFU ORM1 (11744905_x_at) / Fold change /veh ORM1 (11744905_x_at) / RFU CCDC152 (11743942_at) / Fold change /veh CCDC152 (11743942_at) / RFU ECM1 (11717891_a_at) / Fold change /veh ECM1 (11717891_a_at) / RFU IL23R (11748794_a_at) / Fold change /veh IL23R (11748794_a_at) / RFU TNFAIP8L3 (11732012_x_at) / Fold change /veh TNFAIP8L3 (11732012_x_at) / RFU MBOAT4 (11741988_at) / Fold change /veh MBOAT4 (11741988_at) / RFU 11764193_at / Fold change /veh 11764193_at / RFU TMEM53 (11763286_at) / Fold change /veh TMEM53 (11763286_at) / RFU MAGEB2 (11727129_at) / Fold change /veh MAGEB2 (11727129_at) / RFU TMEM200A (11744735_a_at) / Fold change /veh TMEM200A (11744735_a_at) / RFU CCDC152 (11751479_a_at) / Fold change /veh CCDC152 (11751479_a_at) / RFU FAM211A (11726209_a_at) / Fold change /veh FAM211A (11726209_a_at) / RFU RGS16 (11746705_a_at) / Fold change /veh RGS16 (11746705_a_at) / RFU VCAN (11755009_s_at) / Fold change /veh VCAN (11755009_s_at) / RFU RHOB (11743442_s_at) / Fold change /veh RHOB (11743442_s_at) / RFU RGS16 (11720943_a_at) / Fold change /veh RGS16 (11720943_a_at) / RFU RGS16 (11720944_at) / Fold change /veh RGS16 (11720944_at) / RFU, VPS4B / Fold change vs veh, VPS4B / RFU, CREB1 / Fold change vs veh, CREB1 / RFU, DNAJC13 / Fold change vs veh, DNAJC13 / RFU, GNAQ / Fold change vs veh, GNAQ / RFU, CDK5R1 / Fold change vs veh, CDK5R1 / RFU, ZRANB3 / Fold change vs veh, ZRANB3 / RFU, CUL4A / Fold change vs veh, CUL4A / RFU, CCNY / Fold change vs veh, CCNY / RFU, UFL1 / Fold change vs veh, UFL1 / RFU, COG3 / Fold change vs veh, COG3 / RFU, DIAPH2 / Fold change vs veh, DIAPH2 / RFU, SKA2 / Fold change vs veh, SKA2 / RFU, AFF3 / Fold change vs veh, AFF3 / RFU, LMF1 / Fold change vs veh, LMF1 / RFU, IPO11 / Fold change vs veh, IPO11 / RFU, DFFB / Fold change vs veh, DFFB / RFU, FOXP1 / Fold change vs veh, FOXP1 / RFU, CARD8 / Fold change vs veh, CARD8 / RFU, STRN3 / Fold change vs veh, STRN3 / RFU, ADK / Fold change vs veh, ADK / RFU, RASSF2 / Fold change vs veh, RASSF2 / RFU, WIPF1 / Fold change vs veh, WIPF1 / RFU, LARP1B / Fold change vs veh, LARP1B / RFU, RASA1 / Fold change vs veh, RASA1 / RFU, RB1 / Fold change vs veh, RB1 / RFU, PPFIA1 / Fold change vs veh, PPFIA1 / RFU, MAT2A / Fold change vs veh, MAT2A / RFU, CCT5 / Fold change vs veh, CCT5 / RFU, WDR92 / Fold change vs veh, WDR92 / RFU, CUX1 / Fold change vs veh, CUX1 / RFU, TTC7A / Fold change vs veh, TTC7A / RFU, TMEM135 / Fold change vs veh, TMEM135 / RFU, DEPTOR / Fold change vs veh, DEPTOR / RFU, CPM / Fold change vs veh, CPM / RFU, DNAJB6 / Fold change vs veh, DNAJB6 / RFU, CACNA2D3 / Fold change vs veh, CACNA2D3 / RFU, DTX4 / Fold change vs veh, DTX4 / RFU, TFCP2 / Fold change vs veh, TFCP2 / RFU, GMCL1 /// GMCL1P1 / Fold change vs veh, GMCL1 /// GMCL1P1 / RFU, AEBP2 / Fold change vs veh, AEBP2 / RFU, SNHG1 /// SNORD22 /// SNORD25 /// SNORD26 /// SNORD27 /// SNORD28 /// SNORD29 /// SNORD31 / Fold change vs veh, SNHG1 /// SNORD22 /// SNORD25 /// SNORD26 /// SNORD27 /// SNORD28 /// SNORD29 /// SNORD31 / Fold change (Aza/veh), C12orf56 (ProbeSet 11735607_a_at) / Fold change (ACY-1035/veh), C12orf56 (ProbeSet 11735607_a_at) / Fold change (Aza/veh), FGFR1OP (ProbeSet 11751329_s_at) / Fold change (ACY-1035/veh), FGFR1OP (ProbeSet 11751329_s_at) / Fold change (Aza/veh), VPS36 (ProbeSet 11739960_a_at) / Fold change (ACY-1035/veh), VPS36 (ProbeSet 11739960_a_at) / RFU SYPL1 (11715823_x_at) / Fold change /veh SYPL1 (11715823_x_at) / RFU IGFBP7 (11715501_s_at) / Fold change /veh IGFBP7 (11715501_s_at) / RFU REEP3 (11722064_at) / Fold change /veh REEP3 (11722064_at) / RFU IGLL1 (11728026_x_at) / Fold change /veh IGLL1 (11728026_x_at): dose or concentration left out as unconfirmed",
  "settings": "ProbeSet 11732281_s_at; LIST D",
  "data": [
    {"smiles": "Nc1ccc(-c2cccs2)cc1NC(=O)c1ccc2c(c1)cc(C1CC1)n2CCN1CCOCC1", "note": "[ACY-1035]", "values": [
      {"measurement": "RFU, FOXP1", "result": 243.86, "unit": "RFU"}
    ]}
  ]
}
